{"source": "paper PMC9241695", "about": "“Selective Metal Chelation by a Thiosemicarbazone Derivative Interferes with Mitochondrial Respiration and Ribosome Biogenesis in Candida albicans” (Microbiology Spectrum, 2022)", "key": {"[1]": {"test_system": "C. albicans SC5314", "experiment": "Respiratory activity by CTC staining", "assay_type": "cell-based, Candida albicans", "details": "6 h, 1 mM CTC; 19ak 0.125-1 μg/mL, TPEN 0.05-0.4 μg/mL", "procedure": "h (for C. albicans, C. krusei, C. tropicalis, C. parapsilosis) or 48 h (for C. neoformans, A. fumigatus). The MIC was determined based on visible growth inhibition compared with the control. All experiments were performed in duplicate.\nCytotoxicity testing. The cell lines HK2 and 16HBE were used to evaluate the cytotoxicity of 19ak, 19k and 19t. Cells in DMEM containing 10% fetal bovine serum (Gibco) were seeded in 96-well tissue culture plates at a cell density of 1 × 10^4 cells/mL and incubated for 24 h to allow adhesion. The supernatant was then replaced with fresh DMEM containing various concentrations of 19ak, 19k and 19t. […]\nThe effects of the compounds on cell proliferation were detected by measuring the absorbance at 570 nm in a microplate reader (BioTek, VT, USA). […]\nthe fluorescent complex […] (CTF) is commonly used to indicate the intensity of microbial respiration. C. albicans SC5314 treated with 19ak was stained with 1 mM CTC for 30 min, followed by flow cytometry analysis of respiratory activity based on fluorescence intensity. Images of cells were obtained using a fluorescence microscope (IX71, Olympus, Tokyo, Japan). […] After an additional 2 h of incubation, OD450 in each well was detected with a microplate reader. […]\nMitochondrial complex activity was expressed as nmol/min/mg protein. […]"}, "[2]": {"test_system": "C. albicans SC5314", "experiment": "Antifungal susceptibility testing, microbroth dilution MIC", "assay_type": "cell-based", "details": "Candida albicans, SC5314, read-out: MIC against C. albicans SC5314 (Fig. S2 legend)", "excerpt": "Compound library. The thiosemicarbazone derivatives Triapine and COTI-2 were purchased from Med Chem Express (MCE). The other 87 thiosemicarbazones used in this study were previously synthesized by our collaborators (1, 2). Their structures are shown in Table 1 and Table S1 to help the reader clearly understand the relationship between structure and activity.\nStrains and culture conditions. Clinically derived C. albicans isolates, including G5, F5, and Gu5, were kindly provided by Professor Joachim Morschhäuser of the University of Würzburg. Other clinical C. albicans isolates were kindly donated by Professor Qingguo Qi of Shandong University and Qianfoshan Hospital of Shandong Province Other Candida strains were obtained from Jinan Central Hospital.\nThe zap1 mutant and its complemented strain were kindly provided by Professor Aaron P. Mitchell of Carnegie Mellon University (3). The C. neoformans strains used in this study was kindly donated by Professor Guojian Liao of Southwest University and A. fumigatus strain used in this study was provided by Professor Ling Lu of Nanjing Normal University. Before in vitro and in vivo experiments, all C. albicans strains were grown on YPD agar plates. After culturing at 30°C for 24 h, colonies of each strain were cultured in liquid YPD medium at 30°C with continuous shaking […]\nAntifungal susceptibility testing. To determine in vitro antifungal activities, the microbroth dilution method was carried out in RPMI1640 medium according to the guidelines of the Clinical and Laboratory Standards Institute (4, 5). The initial concentration in RPMI1640 medium was 1 × 10^3 CFU/mL for the C. albicans and C. neoformans suspensions but 1 × 10^4 CFU/mL for A. fumigatus. The range of final drug concentrations was 0.0156–64 μg/mL. The plates were incubated at35°C for 24 […]\nh (for C. albicans, C. krusei, C. tropicalis, C. parapsilosis) or 48 h (for C. neoformans, A. fumigatus). The MIC was determined based on visible growth inhibition compared with the control. All experiments were performed in duplicate. […]"}, "[3]": {"test_system": "C. albicans SC5314", "experiment": "qPCR of genes associated with ribosome biogenesis", "assay_type": "cell-based, Candida albicans", "details": "CPX 0.5 or 2 μg/mL 8 h; DFO 64 µg/mL 6 h; TPEN 0.05 or 0.2 μg/mL 6 h", "procedure": "Determination of SOD activity. SOD activity was measured using the Superoxide Dismutase Activity Assay Kit (Njjcbio, Nanjing, China) following the manufacturer's instructions. An overnight culture of C. albicans SC5314 was adjusted to 1 × 10^7 cells/mL with RPMI1640 medium and treated with 19ak at a final concentration of 0, 0.125, 0.25, 0.5, or 1 μg/mL for 6 h. After collection by centrifugation, the cells were broken by glass beads in extraction buffer and centrifuged at 4°C. The absorbance of the supernatant of each sample was measured with a microplate reader at450 nm.\nDetermination of catalase (CAT) activity. CAT activity was measured by using a Catalase Assay Kit (Solarbio, Beijing, China) following the manufacturer's instructions. An overnight culture of C. albicans SC5314 was adjusted to 1 × 10^6 cells/mL with RPMI1640 medium and treated as described above for SOD activity.\nThe decomposition of H2O2 is directly accompanied by a decrease in absorbance at 240 nm, and the difference in absorbance per unit time (ΔA240) is a measure of […]\nQuantitative real-time polymerase chain reaction (qPCR) analysis. C. albicans SC5314 cells (1 × 10^6 cells/mL) were incubated with or without 19ak (0.5,2 […]\nTotal RNA was extracted using the hot phenol method, and the RNA quality was analyzed using a spectrophotometer (Eppendorf, Hamburg, Germany). The RNA was converted to cDNA using a cDNA Reverse\nTranscription kit (Accurate Biotechnology, Hunan, China). PCR detection based on SYBR Green was performed on an Eppendorf real-time PCR system (Eppendorf, […]\nDrug resistance study. Drug resistance studies were carried out by repeatedly treating C. albicans with an antifungal agent followed by MIC determination using […]"}}}
{"smiles": "c1ccc(CN(CCN(Cc2ccccn2)Cc2ccccn2)Cc2ccccn2)nc1", "note": "[TPEN, N,N,N′,N′-tetrakis (2-pyridylmethyl) ethylenediamine, reference compound]", "values": [{"measurement": "Mitochondrial respiratory activity (CTC fluorescence intensity)", "setting": "[1]", "value": "failed to observe reduced mitochondrial respiration"}, {"measurement": "MIC", "setting": "[2]", "value": 0.05, "unit": "µg/mL"}, {"measurement": "Expression of genes associated with ribosome biogenesis (qPCR)", "setting": "[3]", "value": "downregulated"}]}
